Measurements taken from US20060069132A1, “Azolecarboxamide herbicides” (priority 2004, published 2006).

How the values were obtained:
[1] = tested on: large crabgrass; test: Test A pre-/postemergence herbicide test; type: in vivo, Digitaria sanguinalis
Outline: (§1)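 Plants are held in greenhouse about ten days after treatment, then compared with untreated controls and scored 0 (no effect) to 100 (complete control). Preemergence dosing is a directed soil spray on sown sandy loam; postemergence dosing is spray to runoff at 2–10 cm height.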

[2] = tested on: common ragweed; test: Test C pre-/postemergence herbicide test; type: in vivo, Ambrosia elatior; design: key to Plant response rating, Ragweed: 0 = no effect, 100 = complete control
Outline: (§2)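 Greenhouse-grown plants were evaluated visually 12 to 14 days after treatment, with 100 meaning complete control and 0 no effect. Application was preemergence, or postemergence at 2 to 18 cm.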

[3] = tested on: johnsongrass; test: Test C pre-/postemergence herbicide test; type: in vivo, Sorghum halepense
Outline: as §2

[4] = tested on: Surinam grass; test: Test C pre-/postemergence herbicide test; type: in vivo, Urochloa decumbens
Outline: as §2

[5] = tested on: bermudagrass; test: Test C pre-/postemergence herbicide test; type: in vivo, Cynodon dactylon; conditions: for Bermudagrass plant response rating: 500 g ai/ha
Outline: as §2

[6] = tested on: morningglory; test: Test C pre-/postemergence herbicide test; type: in vivo, Ipomoea coccinea; design: key to Plant response rating, Morningglory: 0 = no effect, 100 = complete control
Outline: as §2

[7] = tested on: ducksalad; test: Test C flooded paddy test; type: in vivo, Heteranthera limosa; conditions: for Plant response rating, Ducksalad: 500 g ai/ha, visual rating after 12 to 14 days
[8] = tested on: barnyardgrass; test: Test C flooded paddy test; type: in vivo, Echinochloa crus-galli; conditions: for Plant response rating, Barnyardgrass: 500 g ai/ha, visual rating after 12 to 14 days
Outline: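 Visual rating, 0 (no effect) to 100 (complete control), vs. controls at 12–14 d in greenhouse. Postemergence: 1–4-leaf plants, 2–18 cm. Paddy: flooded, barnyardgrass at 2-leaf stage.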

[9] = tested on: giant foxtail; test: Test A pre-/postemergence herbicide test; type: in vivo, Setaria faberi
Outline: as §1

[10] = tested on: goosegrass; test: Test C pre-/postemergence herbicide test; type: in vivo, Eleusine indica
Outline: as §2

[11] = tested on: corn; test: Test C pre-/postemergence herbicide test; type: in vivo, Zea mays
Outline: as §2

[12] = tested on: morningglory; test: Test A pre-/postemergence herbicide test; type: in vivo, Ipomoea spp.
Outline: as §1

[13] = tested on: velvetleaf; test: Test C pre-/postemergence herbicide test; type: in vivo, Abutilon theophrasti
Outline: as §2

[14] = Postemergence, 500 g ai/ha, 0 to 100 scale, 0 no effect, 100 complete control
[15] = Postemergence, 2000 g ai/ha, 0 to 100 scale, 0 no effect, 100 complete control
[16] = Preemergence, 2000 g ai/ha, visual rating, 0 to 100 scale (0 no effect, 100 complete control)
[17] = preemergence, 500 g ai/ha, visual injury, 0 to 100 scale (0 no effect, 100 complete control)
[18] = 62 g ai/ha, preemergence, scale 0 to 100
[19] = 250 g ai/ha, scale 0-100, preemergence
[20] = 500 g ai/ha, scale 0 to 100 (0 no effect, 100 complete control), visual, 12 to 14 days, preemergence
[21] = 125 g ai/ha, scale 0 (no effect) to 100 (complete control), visual, 12 to 14 days, preemergence
[22] = 62 g ai/ha, scale 0 to 100 (0 no effect, 100 complete control)
[23] = 125 g ai/ha, scale 0 to 100 (0 no effect, 100 complete control)
[24] = 250 g ai/ha, scale of 0 to 100, 0 is no effect, 100 is complete control
[25] = scale 0 to 100 (0 no effect, 100 complete control)
[26] = Postemergence, 500 g ai/ha, scale 0 to 100
[27] = Postemergence, 250 g ai/ha, scale 0 to 100, 0 no effect, 100 complete control
[28] = postemergence, 125 g ai/ha, scale 0 to 100
[29] = postemergence, 62 g ai/ha, scale 0 to 100

CCc1nc(C(C)(C)C)sc1C(=O)Nc1cccc(C(=O)NCC2CC2)n1 [Compound 215]
Crabgrass, Large plant response rating [1, 14]: 20 | Plant response rating, Crabgrass, Large [1, 15]: 30 | Crabgrass, Large plant response rating [1, 16]: 55 | Crabgrass, Large plant response rating [1, 17]: 30 | Plant response rating, Ragweed [2, 18]: 0 | Plant response rating, Ragweed [2, 19]: 100 | Plant response rating, Ragweed [2, 20]: 100 | Plant response rating, Johnsongrass [3, 18]: 0 | Plant response rating, Johnsongrass [3, 21]: 20 | Plant response rating, Johnsongrass [3, 19]: 50 | Plant response rating, Johnsongrass [3, 20]: 85 | Plant response rating, Surinam Grass [4, 18]: 0 | Plant response rating, Surinam Grass [4, 19]: 30 | Plant response rating, Surinam Grass [4, 20]: 50 | Plant response rating, Bermudagrass ([5]; 62 g ai/ha, preemergence, scale 0 to 100, 0 no effect, 100 complete control): 40 | Plant response rating, Bermudagrass [5, 21]: 70 | Plant response rating, Bermudagrass [5, 19]: 85 | Bermudagrass plant response rating ([5]; Preemergence, scale 0 to 100, 0 no effect, 100 complete control): 100 | Plant response rating, Morningglory [6, 18]: 0 | Plant response rating, Morningglory [6, 21]: 0 | Plant response rating, Morningglory [6, 19]: 0 | Plant response rating, Morningglory [6, 20]: 40 | Ducksalad plant response rating [7, 22]: 40 | Ducksalad plant response rating [7, 23]: 40 | Ducksalad plant response rating [7, 24]: 60 | Plant response rating, Ducksalad [7, 25]: 80 | Barnyardgrass plant response rating [8, 22]: 0 | Barnyardgrass plant response rating [8, 23]: 0 | Barnyardgrass plant response rating [8, 24]: 40 | Plant response rating, Barnyardgrass [8, 25]: 50 | Foxtail, Giant plant response rating [9, 14]: 25 | Plant response rating, Foxtail, Giant [9, 15]: 40 | Foxtail, Giant plant response rating [9, 16]: 75 | Foxtail, Giant plant response rating [9, 17]: 50 | Plant response rating, Goosegrass [10, 18]: 0 | Plant response rating, Goosegrass [10, 21]: 40 | Plant response rating, Goosegrass [10, 19]: 80 | Plant response rating, Goosegrass [10, 20]: 100 | Plant response rating, Corn [11, 18]: 0 | Plant response rating, Corn [11, 21]: 20 | Plant response rating, Corn [11, 19]: 20 | Plant response rating, Corn [11, 20]: 50 | Morningglory plant response rating [12, 14]: 25 | Plant response rating, Morningglory [12, 15]: 35 | Morningglory plant response rating [12, 16]: 55 | Morningglory plant response rating [12, 17]: 20 | Plant response rating, Velvetleaf [13, 18]: 0 | Plant response rating, Velvetleaf [13, 19]: 40 | Plant response rating, Velvetleaf [13, 20]: 100

CCn1nc(C(C)(C)C)cc1C(=O)Nc1cccc(OC(F)(F)F)c1 [Compound 272]
Crabgrass, Large plant response rating [1, 14]: 55 | Plant response rating, Crabgrass, Large [1, 15]: 90 | Crabgrass, Large plant response rating [1, 16]: 100 | Crabgrass, Large plant response rating [1, 17]: 85 | Ragweed plant response rating [2, 26]: 95 | Plant response rating, Ragweed [2, 27]: 80 | Plant response rating, Ragweed [2, 28]: 65 | Plant response rating, Ragweed [2, 29]: 60 | Johnsongrass plant response rating [3, 26]: 55 | Plant response rating, Johnsongrass [3, 27]: 45 | Plant response rating, Johnsongrass [3, 28]: 40 | Plant response rating, Johnsongrass [3, 29]: 10 | Surinam Grass plant response rating [4, 26]: 60 | Plant response rating, Surinam Grass [4, 27]: 35 | Plant response rating, Surinam Grass [4, 28]: 10 | Plant response rating, Surinam Grass [4, 29]: 5 | Bermudagrass plant response rating ([5]; Postemergence, scale 0 to 100): 100 | Plant response rating, Bermudagrass [5, 27]: 100 | Plant response rating, Bermudagrass [5, 28]: 80 | Plant response rating, Bermudagrass [5, 29]: 50 | Morningglory plant response rating [6, 26]: 100 | Plant response rating, Morningglory [6, 27]: 100 | Plant response rating, Morningglory [6, 28]: 100 | Plant response rating, Morningglory [6, 29]: 80 | Ducksalad plant response rating ([7]; 62 g ai/ha, scale 0 to 100): 10 | Ducksalad plant response rating [7, 23]: 20 | Ducksalad plant response rating [7, 24]: 40 | Plant response rating, Ducksalad [7, 25]: 85 | Barnyardgrass plant response rating [8, 22]: 0 | Barnyardgrass plant response rating [8, 23]: 0 | Barnyardgrass plant response rating [8, 24]: 10 | Plant response rating, Barnyardgrass [8, 25]: 30 | Foxtail, Giant plant response rating [9, 14]: 45 | Plant response rating, Foxtail, Giant [9, 15]: 95 | Foxtail, Giant plant response rating [9, 16]: 100 | Foxtail, Giant plant response rating [9, 17]: 90 | Goosegrass plant response rating [10, 26]: 80 | Plant response rating, Goosegrass [10, 27]: 75 | Plant response rating, Goosegrass [10, 28]: 65 | Plant response rating, Goosegrass [10, 29]: 20 | Corn plant response rating [11, 26]: 20 | Plant response rating, Corn [11, 27]: 15 | Plant response rating, Corn [11, 28]: 15 | Plant response rating, Corn [11, 29]: 10 | Morningglory plant response rating [12, 14]: 100 | Plant response rating, Morningglory [12, 15]: 100 | Morningglory plant response rating [12, 16]: 55 | Morningglory plant response rating [12, 17]: 20 | Velvetleaf plant response rating [13, 26]: 100 | Plant response rating, Velvetleaf [13, 27]: 100 | Plant response rating, Velvetleaf [13, 28]: 95 | Plant response rating, Velvetleaf [13, 29]: 85
